According to US20210395239A1 (Hoffmann-La Roche Inc., priority 2018, published 2021):

Biological target: T1, hTLR9 (Homo sapiens, UniProt Q9NR96)
T1 sequence (Q9NR96 26-1032): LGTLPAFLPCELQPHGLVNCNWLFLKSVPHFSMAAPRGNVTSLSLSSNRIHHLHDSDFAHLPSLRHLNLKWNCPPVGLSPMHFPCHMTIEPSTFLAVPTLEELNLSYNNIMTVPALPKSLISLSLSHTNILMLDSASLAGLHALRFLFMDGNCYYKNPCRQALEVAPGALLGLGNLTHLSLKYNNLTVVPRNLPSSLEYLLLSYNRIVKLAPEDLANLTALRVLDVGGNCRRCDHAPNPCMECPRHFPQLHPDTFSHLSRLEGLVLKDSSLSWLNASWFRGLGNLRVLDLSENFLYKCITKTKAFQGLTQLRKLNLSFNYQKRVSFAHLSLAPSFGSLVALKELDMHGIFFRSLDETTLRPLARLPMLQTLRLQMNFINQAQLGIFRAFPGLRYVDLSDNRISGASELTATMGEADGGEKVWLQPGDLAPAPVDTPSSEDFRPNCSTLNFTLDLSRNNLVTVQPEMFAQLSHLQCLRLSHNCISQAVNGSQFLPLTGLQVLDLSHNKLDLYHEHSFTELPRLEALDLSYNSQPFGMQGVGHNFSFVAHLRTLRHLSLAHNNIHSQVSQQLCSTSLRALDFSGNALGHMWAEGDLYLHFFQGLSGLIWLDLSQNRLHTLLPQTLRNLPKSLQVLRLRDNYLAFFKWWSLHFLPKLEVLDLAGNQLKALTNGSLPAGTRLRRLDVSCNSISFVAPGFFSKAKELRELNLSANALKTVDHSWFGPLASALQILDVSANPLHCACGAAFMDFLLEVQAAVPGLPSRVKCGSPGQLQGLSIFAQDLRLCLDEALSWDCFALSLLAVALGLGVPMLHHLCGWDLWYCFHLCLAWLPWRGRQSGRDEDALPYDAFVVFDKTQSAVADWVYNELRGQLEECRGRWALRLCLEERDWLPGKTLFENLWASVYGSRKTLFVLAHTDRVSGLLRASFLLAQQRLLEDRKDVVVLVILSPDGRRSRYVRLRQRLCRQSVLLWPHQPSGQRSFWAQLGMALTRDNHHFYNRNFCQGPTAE
Assay: HEK293-Blue-hTLR-9 cells assay (SEAP reporter, ODN2006 stimulation)
Type: cell-based
Set-up: host or cells: HEK293 (HEK-Blue hTLR9)
Details: HEK293-Blue-hTLR9 cells, ODN2006, 20 hrs; read-out: HEK/hTLR9 IC50
How it was run: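 HEK293-Blue-hTLR9 cells with NF-κB/AP-1-driven SEAP reporter treated with serially diluted compound (1% DMSO final) plus ODN2006 for 20 h at 37 °C. Supernatant SEAP measured with QUANTI-Blue, 2 h at 37 °C, absorbance 620–655 nm; antagonism seen as reduced reporter signal.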

SMILES | IC50 [nM]
C[C@@H]1CN(c2ccc(C#N)c3ncccc23)C[C@H](CN2CCN(c3ccnc(N4C[C@@H](N)[C@@H](F)C4)n3)CC2)O1 [Example 101, 5-[(2S,6R)-2-[[4-[2-[(3R,4S)-3-amino-4-fluoro-pyrrolidin-1-yl]pyrimidin-4-yl]piperazin-1-yl]methyl]-6-methyl-morpholin-4-yl]quinoline-8-carbonitrile] | 31
C[C@@H]1CN(c2ccc(C#N)c3ncccc23)C[C@H](CN2CCN(c3ccnc(N4C[C@@H](N)[C@H](F)C4)n3)CC2)O1 [Example 96, 5-[(2S,6R)-2-[[4-[2-[(3R,4R)-3-amino-4-fluoro-pyrrolidin-1-yl]pyrimidin-4-yl]piperazin-1-yl]methyl]-6-methyl-morpholin-4-yl]quinoline-8-carbonitrile] | 109
Cc1cc(N2CC(C)(N)C2)cnc1N1CCN(C[C@H]2CN(c3ccc(C#N)n4ncc(F)c34)C[C@@H](C)O2)CC1 [Example 148, 4-[(2S,6R)-2-[[4-[5-(3-amino-3-methyl-azetidin-1-yl)-3-methyl-2-pyridyl]piperazin-1-yl]methyl]-6-methyl-morpholin-4-yl]-3-fluoro-pyrazolo[1,5-a]pyridine-7-carbonitrile] | 75
CO[C@@H]1CN(c2cc(C)nc(N3CCN(C[C@H]4CN(c5ccc(C#N)c6nccnc56)C[C@@H](C)O4)CC3)n2)C[C@H]1N [Example 121, 8-[(2S,6R)-2-[[4-[4-[(3R,4R)-3-amino-4-methoxy-pyrrolidin-1-yl]-6-methyl-pyrimidin-2-yl]piperazin-1-yl]methyl]-6-methyl-morpholin-4-yl]quinoxaline-5-carbonitrile] | 44
[2H]c1ccc2c(N3C[C@H](CN4CCN(c5ccc(N6CC(C)(N)C6)c(C)n5)CC4)O[C@H](C)C3)ccc(C#N)c2n1 [Example 147, 5-[(2S,6R)-2-[[4-[5-(3-amino-3-methyl-azetidin-1-yl)-6-methyl-2-pyridyl]piperazin-1-yl]methyl]-6-methyl-morpholin-4-yl]-2-deuterio-quinoline-8-carbonitrile] | 181
[2H]c1ccc2c(N3C[C@H](CN4CCN(c5ccc(N6C[C@@H](N)[C@H](OC)C6)nc5)CC4)O[C@H](C)C3)ccc(C#N)c2n1 [Example 143, 5-[(2S,6R)-2-[[4-[6-[(3R,4R)-3-amino-4-methoxy-pyrrolidin-1-yl]-3-pyridyl]piperazin-1-yl]methyl]-6-methyl-morpholin-4-yl]-2-deuterio-quinoline-8-carbonitrile] | 47
[2H]c1ccc2c(N3C[C@H](CN4CCN(c5ccc(N6C[C@H]7C[C@@H]6CN7)nc5)CC4)O[C@H](C)C3)ccc(C#N)c2n1 [Example 153, 2-deuterio-5-[(2S,6R)-2-[[4-[6-[(1R,4R)-2,5-diazabicyclo[2.2.1]heptan-2-yl]-3-pyridyl]piperazin-1-yl]methyl]-6-methyl-morpholin-4-yl]quinoline-8-carbonitrile] | 113
Cc1ccc(N2C[C@H](CN3CCN(c4ccnc(N5CCN[C@H](C)C5)n4)CC3)O[C@H](C)C2)c2nccnc12 [Example 128, (2R,6S)-2-methyl-6-[[4-[2-[(3R)-3-methylpiperazin-1-yl]pyrimidin-4-yl]piperazin-1-yl]methyl]-4-(8-methylquinoxalin-5-yl)morpholine] | 182
[2H]c1ccc2c(N3C[C@H](CN4CC(c5ccc(N6C[C@@H](N)[C@H](OC)C6)nc5)C4)O[C@H](C)C3)ccc(C#N)c2n1 [Example 149, 5-[(2S,6R)-2-[[3-[6-[(3R,4R)-3-amino-4-methoxy-pyrrolidin-1-yl]-3-pyridyl]azetidin-1-yl]methyl]-6-methyl-morpholin-4-yl]-2-deuterio-quinoline-8-carbonitrile] | 68
C[C@@H]1CN(c2ccc(C#N)c3ncccc23)C[C@H](CN2CCN(c3ncc(F)c(N4CCNCC4)n3)CC2)O1 [Example 94, 5-[(2S,6R)-2-[[4-(5-fluoro-4-piperazin-1-yl-pyrimidin-2-yl)piperazin-1-yl]methyl]-6-methyl-morpholin-4-yl]quinoline-8-carbonitrile] | 51

Now from value to molecule:

IC50 [nM] | SMILES
31 | [2H]c1nc2c(C#N)ccc(N3C[C@H](CN4CCN(c5nc(C)cc(N6CC(N)C6)n5)CC4)O[C@H](C)C3)c2nc1[2H] [Example 124, 8-[(2S,6R)-2-[[4-[4-(3-aminoazetidin-1-yl)-6-methyl-pyrimidin-2-yl]piperazin-1-yl]methyl]-6-methyl-morpholin-4-yl]-2,3-dideuterio-quinoxaline-5-carbonitrile]
112 | C[C@@H]1CN(c2ccc(C#N)n3ncc(F)c23)C[C@H](CN2CCN(c3ccc(N4CC(C)(N)C4)nc3)CC2)O1 [Example 154, 4-[(2S,6R)-2-[[4-[6-(3-amino-3-methyl-azetidin-1-yl)-3-pyridyl]piperazin-1-yl]methyl]-6-methyl-morpholin-4-yl]-3-fluoro-pyrazolo[1,5-a]pyridine-7-carbonitrile]
36 | [2H]c1ccc2c(N3C[C@H](CN4CCN(c5ccc(N[C@H]6CNC[C@H]6F)nc5)CC4)O[C@H](C)C3)ccc(C#N)c2n1 [Example 162, 2-deuterio-5-[(2S,6R)-2-[[4-[6-[[(3S,4R)-4-fluoropyrrolidin-3-yl]amino]-3-pyridyl]piperazin-1-yl]methyl]-6-methyl-morpholin-4-yl]quinoline-8-carbonitrile]
120 | C[C@@H]1CN(c2ccc(C#N)c3ncccc23)C[C@H](CN2CCN(c3cnc(N4CCNCC4)cn3)CC2)O1 [Example 6, 5-[(2R,6S)-2-methyl-6-[[4-(5-piperazin-1-ylpyrazin-2-yl)piperazin-1-yl]methyl]morpholin-4-yl]quinoline-8-carbonitrile]
109 | Cc1ccc(N2C[C@H](CN3CCN(c4ccnc(N5CCNCC5)n4)CC3)O[C@H](C)C2)c2nccnc12 [Example 117, (2R,6S)-2-methyl-4-(8-methylquinoxalin-5-yl)-6-[[4-(2-piperazin-1-ylpyrimidin-4-yl)piperazin-1-yl]methyl]morpholine]
175 | [2H]c1ccc2c(N3C[C@H](CN4CCN(c5ccc(N6C[C@H](N)[C@@H](F)C6)nc5)CC4)O[C@H](C)C3)ccc(C#N)c2n1 [Example 150, 5-[(2S,6R)-2-[[4-[6-[(3S,4S)-3-amino-4-fluoro-pyrrolidin-1-yl]-3-pyridyl]piperazin-1-yl]methyl]-6-methyl-morpholin-4-yl]-2-deuterio-quinoline-8-carbonitrile]
31 | Cc1cc(N2CC(N)C2)nc(N2CCN(C[C@H]3CN(c4ccc(C#N)c5nccnc45)C[C@@H](C)O3)CC2)n1 [Example 123, 8-[(2S,6R)-2-[[4-[4-(3-aminoazetidin-1-yl)-6-methyl-pyrimidin-2-yl]piperazin-1-yl]methyl]-6-methyl-morpholin-4-yl]quinoxaline-5-carbonitrile]
80 | Cc1cnc(N2CCN(C[C@H]3CN(c4ccc(C#N)c5ncccc45)C[C@@H](C)O3)CC2)nc1N1CCNCC1 [Example 102, 5-[(2R,6S)-2-methyl-6-[[4-(5-methyl-4-piperazin-1-yl-pyrimidin-2-yl)piperazin-1-yl]methyl]morpholin-4-yl]quinoline-8-carbonitrile]
100 | [2H]c1ccc2c(N3C[C@H](CN4CC(c5cccc(N6CC(C)(N)C6)n5)C4)O[C@H](C)C3)ccc(C#N)c2n1 [Example 159, 5-[(2S,6R)-2-[[3-[6-(3-amino-3-methyl-azetidin-1-yl)-2-pyridyl]azetidin-1-yl]methyl]-6-methyl-morpholin-4-yl]-2-deuterio-quinoline-8-carbonitrile]
96 | [2H]c1ccc2c(N3C[C@H](CN4CCN(c5ccc(N6C[C@@H]7C[C@H]6CN7)nc5)CC4)O[C@H](C)C3)ccc(C#N)c2n1 [Example 151, 2-deuterio-5-[(2S,6R)-2-[[4-[6-[(1S,4S)-2,5-diazabicyclo[2.2.1]heptan-2-yl]-3-pyridyl]piperazin-1-yl]methyl]-6-methyl-morpholin-4-yl]quinoline-8-carbonitrile]
99 | [2H]c1ccc2c(N3C[C@H](CN4CCN(c5ccc(N6CC7(CNCCO7)C6)nc5)CC4)O[C@H](C)C3)ccc(C#N)c2n1 [Example 152, 2-deuterio-5-[(2R,6S)-2-methyl-6-[[4-[6-(5-oxa-2,8-diazaspiro[3.5]nonan-2-yl)-3-pyridyl]piperazin-1-yl]methyl]morpholin-4-yl]quinoline-8-carbonitrile]
